Test results: patent US20210163404A1, “NOVEL UREA COMPOUNDS AND BIOISOSTERES THEREOF AND THEIR USE FOR TREATING INFLAMMATION AND INFLAMMATION-RELATED PATHOLOGIES” (UNIVERSITÉ LAVAL, priority 2017, published 2021)
pIC50: −log10 of the molar value. Where “and” joins values, the source holds several entries; their conditions need not be identical. Equal values may be shown once. Read-outs that look alike come from different tables or passages of the source.

How the values were obtained:
[1] = test system: HaCaT keratinocyte cell line; experiment: Antiproliferative activity (NCI procedure, sulforhodamine B), HaCaT; type: cell-based, human; conditions: 48 h; for GI50: Table 2; for pIC50: Table 6, unit inferred, tested 781 nM to 100 μM
Procedure, shortened: (§1)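 Cells seeded in DMEM, grown 24 h at 37 °C, then exposed 48 h to serial dilutions from 100 μM to 781 nM (DMSO <0.5%). TCA fixation, sulforhodamine B staining, absorbance at 530-568 nm; growth inhibition relative to plates fixed on treatment day. At least two experiments in triplicate.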

[2] = test system: cancer cell lines; conditions: background, refs [4, 5]; in words; cited from earlier work
[3] = test system: HT-29 colon adenocarcinoma cells; experiment: Antiproliferative activity (NCI procedure, sulforhodamine B), HT-29; type: cell-based, human; conditions: 48 h; for GI50: Table 2; for pIC50: Table 6, unit inferred, tested 781 nM to 100 μM
Procedure, shortened: as §1

[4] = test system: HDFn neonatal dermal fibroblast cell line; experiment: Antiproliferative activity (NCI procedure, sulforhodamine B), HDFn; type: cell-based, human; conditions: 48 h; for GI50: Table 2; for pIC50: Table 6, unit inferred, tested 781 nM to 100 μM
Procedure, shortened: as §1

[5] = test system: HaCaT cells; experiment: Cell cycle analysis by flow cytometry; type: cell-based, human; conditions: for Cell cycle progression G0-G1 / Cell cycle progression G2-M / Cell cycle progression S: 10 μM, 24 h; for effect on cell cycle progression: in words
Experimental: The effect of compounds 3a-b, 4e, 5b-c, 6a and 6e on cell cycle progression was subsequently assessed using a flow cytometer in accordance with established experimental protocols to evaluate any potential drug toxicity at specific phases of the cell cycle (Table 3).
HaCaT cells (2.5×10^5) were incubated with compounds 3a-b, 4e, 5b-c, 6a and 6e and curcumin (10 μM) over a period of 24 h. The cells were subsequently trypsinized, washed with PBS, resuspended in PBS (250 μL), fixed by the addition of ice-cold EtOH (750 μL) under agitation and stored at −20° C. until analysis. Prior to FACS analysis, cells were washed with PBS and resuspended in PBS (500 μL) containing 4′,6′-diamidino-2-phenylindole (DAPI) (2 μg/mL). The cell cycle was analyzed using an LSR II flow cytometer (BD Biosciences, Franklin Lakes, N.J.).

[6] = test system: A549 adenocarcinoma alveolar epithelial cancer cells; experiment: Antiproliferative activity (NCI procedure, sulforhodamine B), A549; type: cell-based, human; conditions: 48 h; for GI50: Table 2; for pIC50: Table 6, unit inferred, tested 781 nM to 100 μM
Procedure, shortened: as §1

[7] = test system: IL-6; experiment: IL-6 expression in HaCaT cells stimulated with IL-17A and TNFα (ELISA); type: cell-based, human; conditions: for Expression of IL-6, HaCaT: 10 μM solutions, HaCaT stimulated with IL-17A and TNFα, mean of five experiments in duplicate; for effect on the expression of IL-6 by HaCaT cells: HaCaT cells treated with IL-17 and TNFα; for effect on the expression of IL-6 by HaCaT cells / inhibitory effect on IL-6 expression in HaCaT cells: in words; for inhibitory effect on IL-6 expression in HaCaT cells: 10 μM, stimulated with IL-17A and TNFα
Source text: The effect of compounds 3a-b, 4a-e, 5a-e and 6a-e on the expression of IL-6 was subsequently assessed using the HaCaT spontaneously transformed aneuploid immortal keratinocyte cell line, stimulated by the addition of IL-17A and TNFα in the culture medium (Table 1). Curcumin and ibuprofen were used as known IL-6 expression inhibitors. DMSO was used for solubilizing the drugs. […] Indeed, the inhibitory effect of these molecules was at least equivalent to that of curcumin [27] and ibuprofen, both recognized as anti-inflammatory drugs. The inhibitory effect of the substituted phenyl cycloalkylureas in accordance with an embodiment of the present disclosure on proinflammatory cytokines was also found at the mRNA level. Indeed, the mRNAs of the cytokines IL-6 and TNF-α as well as the mRNA of the chemokine IL-8 were lowered in TNF-α/IL-17A-stimulated HaCaT cells. Similar results were obtained in THP-1 cells stimulated with LPS where treatments with CHEU and 4e diminished the mRNA levels of the cytokines IL-1B, IL-6 and TNF-α in addition to the mRNA levels of the chemokine IL-8. It is surmised that the anti-inflammatory mechanism of action of the compounds of the present disclosure is likely mediated, at least in part, by modulating the phosphorylation state of the MAP kinase p38. […] Addition of a compound in accordance with an embodiment of the present disclosure, prior to stimulation with the aforementioned cytokines, decreases the level of p-p38 at 30-60 minutes post-stimulation. This diminution in p-p38 levels destabilizes the mRNAs of pro-inflammatory cytokines, non-limiting examples of which include TNF-α and IL-6. Moreover, it is surmised that the effect of the compounds of the present disclosure on p-p38 is potentially mediated by the activation of the phosphatase named DUSP1.
HaCaT cells (1×10^5) were suspended in DMEM culture media (500 μL) and incubated for 24 h in 24-well microtiter plates at 37° C. in a moisture-saturated atmosphere containing 5% CO2. Compounds were solubilized in DMSO and diluted in fresh DMEM. The compound (500 μL) was then added to the cell medium to obtain a final concentration of […] and the cells incubated over a period of 1 hour. In the meantime, IL-17α (200 ng/mL) and TNFα (20 ng/mL) (PeproTech, Rocky Hill, N.J.) were added to the drug solution in DMEM. Following the initial incubation of the cells, the culture medium was aspirated from each well and the IL-17α+ TNFα+ compound solution was added to each well for incubation (6 hours). The culture media was then removed and transferred to a clean tube (1.5 mL) at −80° C. until the ELISA test was performed. The presence of IL-6 in the cell media was determined using an IL-6 human Duoset ELISA kit (Fisher Scientific, Ottawa, On.) according to the manufacturer's instructions. Standards and samples were prepared and assessed in duplicate. Two separate replicates were performed for each sample. The absorbance was measured at 450 nm and 540 nm using a TECAN infinite M1000 plate reader.

[8] = test system: IL-6; experiment: IL-6 expression in HaCaT cells stimulated with IL-17A and TNFα (ELISA); type: cell-based; conditions: Homo sapiens, read-out: Reduction IL-6 (%)
[9] = test system: mRNAs of IL-1B, IL-6, TNF-α and IL-8; experiment: mRNA levels of cytokines in THP-1 cells stimulated with LPS; type: cell-based; conditions: in words
Source text: The effect of compounds 3a-b, 4a-e, 5a-e and 6a-e on the expression of IL-6 was subsequently assessed using the HaCaT spontaneously transformed aneuploid immortal keratinocyte cell line, stimulated by the addition of IL-17A and TNFα in the culture medium (Table 1). Curcumin and ibuprofen were used as known IL-6 expression inhibitors. DMSO was used for solubilizing the drugs. […] Indeed, the inhibitory effect of these molecules was at least equivalent to that of curcumin [27] and ibuprofen, both recognized as anti-inflammatory drugs. The inhibitory effect of the substituted phenyl cycloalkylureas in accordance with an embodiment of the present disclosure on proinflammatory cytokines was also found at the mRNA level. Indeed, the mRNAs of the cytokines IL-6 and TNF-α as well as the mRNA of the chemokine IL-8 were lowered in TNF-α/IL-17A-stimulated HaCaT cells. Similar results were obtained in THP-1 cells stimulated with LPS where treatments with CHEU and 4e diminished the mRNA levels of the cytokines IL-1B, IL-6 and TNF-α in addition to the mRNA levels of the chemokine IL-8. It is surmised that the anti-inflammatory mechanism of action of the compounds of the present disclosure is likely mediated, at least in part, by modulating the phosphorylation state of the MAP kinase p38. […]

SMILES | Cell cycle progression G0-G1 [5] | Cell cycle progression G2-M [5] | Cell cycle progression S [5] | effect on cell cycle progression [5] | Expression of IL-6, HaCaT [7] [pg/mL] | GI50 ([1]; Homo sapiens, HaCaT) [µM] | pIC50 ([1]; Homo sapiens, HaCaT) | melting point | GI50 ([3]; Homo sapiens, HT-29) [µM] | pIC50 ([3]; Homo sapiens, HT-29) | GI50 ([4]; Homo sapiens, Fibroblast) [µM] | pIC50 ([4]; Homo sapiens, Fibroblast) | GI50 ([6]; Homo sapiens, A549) [µM] | pIC50 ([6]; Homo sapiens, A549) | inhibitory effect on IL-6 expression in HaCaT cells [7] | further results
CC(C)(C)c1ccc(NC(=O)NCCCl)cc1 [tBCEU, reference compound] | 57.3 | 15.6 | 26.8 | arresting the cell cycle progression in the G2-M phase | 130.6 ± 15.6 |  |  |  |  |  |  |  |  |  |  | GI50 [1]: 12 µM; antiproliferative activity on numerous cancer cell lines [2]: potent antiproliferative activity; GI50 [3]: 6.5 µM; GI50 [4]: 11 µM; GI50 [6]: 6.9 µM; effect on the expression of IL-6 by HaCaT cells [7]: significant decrease
CCNC(=O)Nc1ccc(C(C)(C)C)cc1 [Compound 63, 1-(4-(t-Butyl)phenyl)-3-ethylurea] |  |  |  |  | 81.9 ± 10.8 | > 100 | ≤ 4.00 | 136 to 139 °C | 75 | 4.12 | 60 | 4.22 | 69 | 4.16 |  | Cell cycle progression G0-G1 ([5]; listed as 3a): 44; Cell cycle progression G2-M ([5]; listed as 3a): 31; Cell cycle progression S ([5]; listed as 3a): 25.1
O=C(Nc1ccc(C2CCCCC2)cc1)NC1CCCC1 [Compound 58, 1-(4-Cyclohexylphenyl)-3-cyclopentylurea] | 50.1 | 25.2 | 24.7 | did not affect the cell cycle progression | 50.3 ± 4.7 | 82 | 4.09 | 197 to 199 °C | 13 | 4.89 | 56 | 4.25 | 11 | 4.96 | significant inhibitory effect | 
C[C@@H]1C[C@H]2[C@@H]3CCC4=CC(=O)C=C[C@]4(C)[C@@]3(F)[C@@H](O)C[C@]2(C)[C@@]1(O)C(=O)CO [Dexamethasone] |  |  |  |  |  |  |  |  |  |  |  |  |  |  |  | inhibition at 1 µM ([8]; Table 6, HaCaT stimulated with IL-17A and TNFα): 45.3%; inhibition at 1 µM ([8]; Table 8, HaCaT stimulated with IL-17A and TNFα): 54.5%
O=C(NCCCl)Nc1ccc(C2CCCCC2)cc1 [cHCEU, 1-(2-chloroethyl)-3-(p-cyclohexylphenyl)urea, reference compound] | 56.5 | 19.1 | 24.4 |  | 46.8 ± 8.5 | 27 |  |  | 15 |  | 11 |  | 12 |  |  | antiproliferative activity on numerous cancer cell lines [2]: potent antiproliferative activity; effect on the expression of IL-6 by HaCaT cells [7]: significant decrease
O=C(NCC1CCC1)Nc1ccc(I)cc1 [Compound 23, 1-(Cyclobutylmethyl)-3-(4-iodophenyl)urea] | 45 | 29.4 | 25.6 |  | 33.9 ± 4.3 | 62 | 4.21 | 159 to 160 °C | 29 | 4.54 | 74 | 4.13 | 27 | 4.57 | significant inhibitory effect | 
CC(C)(C)c1ccc(NC(=O)NC2CCCC2)cc1 [Compound 31, 1-(4-(t-Butyl)phenyl)-3-cyclopentylurea] | 48 | 25.8 | 25.1 | did not affect the cell cycle progression | 127.5 ± 17.3 | > 100 | ≤ 4.00 | 218 to 223 °C and 219 to 221 °C | > 100 | ≤ 4.00 | > 100 | ≤ 4.00 | 83 | 4.08 |  | 
CC(C)(C)c1cccc(NC(=O)NCC2CCC2)c1 [Compound 47, 1-(3-(t-Butyl)phenyl)-3-(cyclobutylmethyl)urea] | 46.1 | 30.4 | 23.5 |  | 47.5 ± 3.3 | 39 | 4.41 | 126 to 127 °C | 43 | 4.37 | 21 | 4.68 | 37 | 4.43 | significant inhibitory effect | 
O=C(Nc1ccc(C2CCCCC2)cc1)NC1CC1 [Compound 54, 1-(4-Cyclohexylphenyl)-3-cyclopropylurea] | 47.7 | 28.1 | 24.2 | did not affect the cell cycle progression | 29.2 ± 3.5 | 74 | 4.13 | 173 to 176 °C | 54 | 4.27 | 40 | 4.40 | 48 | 4.32 |  | mRNA levels of the cytokines IL-1B, IL-6 and TNF-α and of the chemokine IL-8 [9]: diminished
